Assays:
[1] = test system: natural phosphodiester ssDNA; test: Thermal denaturation (Tm) of duplexes with complementary DNA; format: binding; details: for Tm, DNA: duplex
Experimental: (§1) ^31P NMR spectra were obtained on a Varian 400 MHz spectrometer. ^31P NMR spectra were referenced against 85% aqueous phosphoric acid. Anion exchange HPLC was performed using a Dionex DX 500 Chromatography System, with a Pharmacia Biotech Mono Q HR 5/5 or 10/16 ion exchange columns. Ion exchange HPLC was performed on the Dionex DX 500 system, using a Pharmacia Mono Q HR 5/5 column. Buffer A and B were: 10 mM NaOH, pH12 and 10 mM NaOH, 1.5 M NaCl, pH12, respectively. Oligonucleotides were eluted using a 1.5%/min. linear gradient of buffer B in A; flow 0.5 mL/min. Mass spectral analysis was performed by Mass Consortium, San Diego, Calif. MALDI-TOF analysis of oligonucleotides was obtained using a PerSpective Biosystems Voyager Elite mass spectrometer with delayed extraction. Thermal dissociation experiments were conducted on a Cary Bio 100 UV-Vis spectrometer.
(§2) ^ad, r, and a correspond to the 2′-deoxy, 2′-ribo-fluoro and to 2′-arabino-fluoronucleosides respectively; p and n correspond to the internucleoside phosphodiester and N3′→P5′ phosphoramidate linkages, respectively; ^bmelting temperature, Tm (±0.5° C.), of the duplexes formed with natural phosphodiester ssDNA or RNA strands, or: ^etriplexes formed with dA/dT duplex part of d(A10C4T10) hairpin. Buffers: ^c150 mM NaCl, 10 mM sodium phosphate buffer pit 7.4—first number, or in: ^dthe same buffer containing an additional 10 mM magnesium chloride—second number; n.o or n.d—the melting transitions and Tm's were not observed or not determined, respectively.
(§3) The ability of N3′→P5′ phosphoramidate 2′-arabino-fluorooligonucleotides to form complexes with complementary DNA and RNA strands was examined and compared with related oligonucleotide analogues using thermal denaturation experiments. […] (compare experiments 1 and 2, Table 1). […] Substitution of 2′-deoxy-3′-aminonucleosides by 2′-arabino-fluoro-3′-amino counterparts stabilized duplexes, by about 2-7° C., with DNA and RNA in a low ionic strength buffer. […] (compare experiments 3 and 6, Table 1).

[2] = test system: dA/dT duplex part of d(A10C4T10) hairpin; test: Thermal denaturation (Tm) of triplexes with dsDNA; format: binding; details: for Tm, dsDNA: triplex
Experimental: as §1
as §2, with “respectively. […]” for “respectively.”

[3] = test system: natural phosphodiester RNA strand; test: Thermal denaturation (Tm) of duplexes with complementary RNA; format: binding; details: for Tm, RNA: duplex; for Tm difference of duplex with RNA: relative to 2′-deoxy phosphodiester oligonucleotide (experiment 1)
Experimental: as §1, §2, §3

[4] = Stability in concentrated aqueous ammonia, judged by IE HPLC; format: physicochemical; details: 24 hours, 55° C., IE HPLC analysis
Experimental: (§4) It was reported that the 2′-ribo-fluoropyrimidine containing oligonucleotides with N3′→P5′ phosphoramidate or with phosphodiester internucleoside linkages are somewhat labile during treatment with aqueous ammonia at 55° C. (Schultz et al., Nucl. Acids Res., 24:2966-2973, 1996; Krug et al., Nucleosides Nucleotides, 8:1473-1483, 1989). Under these basic conditions pyrimidine-O2 mediated elimination of the 2′-fluorine atom takes place, resulting in formation of 2,3′-O-anhydronucleosides and multiple products of their consequent reactions with aqueous ammonia, including 2′-arabino-hydroxyl nucleosides (Krug et al., Nucleosides Nucleotides, 8:1473-1483, 1989). In contrast, the prepared 2′-arabino-fluoro phosphoramidate oligonucleotides were stable under these conditions.

[5] = Acid stability, half-life at pH 3; format: physicochemical
Experimental: as §4

[6] = 150 mM NaCl, 10 mM sodium phosphate buffer (first number)
[7] = same buffer with additional 10 mM magnesium chloride (second number)
[8] = single value given, buffer not stated

| Substance | Tm, DNA [1, 6] | Tm, DNA [1, 7] | Tm, dsDNA [2, 6] | Tm, dsDNA [2, 7] | Tm, RNA [3, 6] | Tm, RNA [3, 7] | Tm difference of duplex with RNA [3] | Tm, RNA [3, 8] | Effect of increasing buffer ionic strength on Tm of duplex with RNA [3] | Tm difference of duplexes ([3]; relative to 2′-arabino-fluoro phosphodiester SEQ ID NO:5 (experiments 3 and 6), DNA and RNA) | Stability on exposure to concentrated aqueous ammonia [4] | Tm difference of complexes with both DNA and RNA strands ([3]; most stable complexes, compare experiments 5, 6 and 7) | Tm difference of complex with DNA (destabilization) ([1]; relative to 2′-deoxy phosphodiester oligonucleotide (experiments 1 and 2)) | Base and acid stability (summary statement) [5] | Relative stability of triplex with dsDNA ([2]; versus SEQ ID NO:6 and SEQ ID NOs:3-5, but not SEQ ID NO:7) |
| --- | --- | --- | --- | --- | --- | --- | --- | --- | --- | --- | --- | --- | --- | --- | --- |
| a(Up^fUp^fUp^fUp^fUp^fUp^fUp^fUp^fUp^fT) [SEQ ID NO:5] | 17.0 °C | 25.0 °C | < 14 °C | 20.9 °C | 27.5 °C | 28.6 °C | 8.3-9.6 °C |  |  |  |  |  |  |  |  |
| d(CnUnCnUnCnUnGnCnCn) (CUCUCUGCC; DNA, backbone, methylation of C and T or U not given here; phosphoramidate linkages) [SEQ ID NO:9, mixed base 2′-deoxy phosphoramidate oligonucleotide] |  |  |  |  |  |  |  | 66.7 °C |  |  |  |  |  |  |  |
| d(UnUnUnUnUnUnUnUnUnT) (UUUUUUUUUT; N3′→P5′ phosphoramidate; contains 2 prime-deoxy nucleosides; test compounds) [SEQ ID NO:6, 2′-deoxy N3′→P5′ phosphoramidate oligonucleotide] | 18.5 °C | 38.2 °C | <15; n.d ° C. |  | 38.1 °C | 47.2 °C |  |  | no effect | 8.7-12.5 °C |  |  |  |  |  |
| dT-r(Un^fUn^fUn^fUn^fUn^fUn^fUn^fUn^f Un^f) (TUUUUUUUUU; 2′-ribo-fluoro phosphoramidate; 5′ dT; contains 2 prime-deoxy and 2 prime-ribo- fluoronucleotides; test compounds) [SEQ ID NO:7, 2′-ribo-fluoro N3′→P5′ phosphoramidate oligonucleotide] | 37.4 °C | 56.3 °C | 42.2 °C | 54.1 °C | 55.5 °C | 61.9 °C |  |  |  |  | converted into a very complex mixture of products | 14-21 °C |  |  |  |
| r(Up^fUp^fUp^fUp^fUp^fUp^fUp^fUp^fUp^fT) (UUUUUUUUUT; 2′-ribo-fluoro; contains 2 prime-ribo-fluoronucleosides; test compounds) [SEQ ID NO:4, 2′-ribo-fluoro phosphodiester decanucleotide] | n.o | 18.0 °C | n.o; n.o | n.o; n.o | 32.9 °C | 36.6 °C | 15.0-16.3 °C |  |  |  |  |  | −6.7-16 °C |  |  |
| a(Cn^fUn^fCn^fUn^fCn^fUn^fGnCn^fCn^f) (CUCUCUGCC; 2'-arabino-fluoro phosphoramidate backbone; contains 2 prime-arabino-fluoronucleosides; test compounds) [SEQ ID NO:10, mixed base 2′-arabino-fluoro phosphoramidate oligonucleotide] |  |  |  |  |  |  |  | 66.8 °C |  |  |  |  |  |  |  |
| d(UpUpUpUpUpUpUpUpUpT) (UUUUUUUUUT; contains 2 prime-deoxy nucleosides; test compounds) [SEQ ID NO:3, 2′-deoxy phosphodiester oligonucleotide] | 16.7 °C | 24.6 °C | n.o;^c n.o^d | n.o;^c n.o^d | 17.9 °C | 20.3 °C |  |  |  |  |  |  |  |  |  |
| dT-a(Un^fUn^fUn^fUn^fUn^fUn^fUn^fUn^f Un^f) (TUUUUUUUUU; 2′-arabino-fluoro phosphoramidate; 5′ dT; contains 2 prime-deoxy and 2 prime-arabino- fluoronucleosides; test compounds) [SEQ ID NO:8, 2′-arabino-fluoro N3′→P5′ phosphoramidate decanucleotide] | 25.7 °C | 37.0 °C | 22.0 °C | 31.2 °C | 40.0; 40.0 °C | 40.0; 40.0 °C |  |  |  |  | practically intact |  |  | base and acid stable | more stable triplex |
